Test results taken from patent US20250325576A1, “COMPOSITIONS FOR USE IN CARTILAGE BREAKDOWN” (Société des Produits Nestlé S.A., priority 2013, published 2025).

Assays:
Format in all cases: cell-based
Details in all cases: 1.5 μM each, 3 days
ADAMTS-5 = ADAMTS-5 mRNA expression relative to GAPDH, bovine primary chondrocytes in alginate beads (real-time PCR)
Description: (§1) The skin was removed from the foot. The articulation was opened transversally. Intra articular ligaments were transected. The opened articulation was washed with phosphate buffered saline. With a scalpel blade, full thickness slices of cartilage were dissected out and collected in DMEM high glucose with 10 mM hepes and 1% Penicillin-Streptomycin. Slices of cartilage were washed in DMEM high glucose with 10 mM hepes and 1% Penicillin-Streptomycin.
(§2) Cartilage was then digested successively by 0.5 mg/ml of hyluronidase during 30 minutes, 1.0 mg/ml of pronase E during 60 minutes and 1.0 mg/ml of collagenase overnight under slow agitation.
(§3) After the enzymatic incubation, the cell suspension was filtered through a 70 μm cell strainer to separate cell cluster and remove tissue debris. The cell suspension was centrifuged to pellet the cells. […]
(§4) Total RNA was isolated from pool of 40 beads and isolated using RNeasy kit from Qiagen. cDNA was obtained by reverse transcription of RNA with the Primescript 1st strand cDNA Synthesis kit from Takara. mRNA expression of ADAMTS-5, COX-2, MMP-13 and GAPDH were quantified in real-time PCR (SYBR Green)
(§5) Data were expressed as fold change in gene expression compared to negative control (cells cultured in complete medium).
(§6) Data were expressed as median±S.E.Median (2 experiments of 3 replicates each). […]

MMP-13 = MMP-13 mRNA expression relative to GAPDH, bovine primary chondrocytes in alginate beads (real-time PCR)
Description: as §1, §2, §3, §4, §5, §6

COX-2 = COX-2 mRNA expression relative to GAPDH, bovine primary chondrocytes in alginate beads (real-time PCR)
Description: as §1, §2, §3, §4, §5, §6

[1] = disease conditions (IL1a 10 ng/ml), vs IL1a
[2] = normal conditions (absence of IL1a), vs CTL-

O=c1c(O)c(-c2ccc(O)c(O)c2)oc2cc(O)cc(O)c12 [Quercetin, quercetin]
ADAMTS-5 mRNA expression relative to GAPDH (ADAMTS-5; [1]): decrease expression of ADAMTS-5
ADAMTS-5 mRNA expression relative to GAPDH (ADAMTS-5; [2]): decrease expression of ADAMTS-5
MMP-13 mRNA expression relative to GAPDH (MMP-13; [1]): decrease expression of MMP-13
MMP-13 mRNA expression relative to GAPDH (MMP-13; [2]): decrease expression of MMP-13
COX-2 mRNA expression relative to GAPDH (COX-2; [1]): decrease expression of COX-2
COX-2 mRNA expression relative to GAPDH (COX-2; [2]): reduce expression of COX-2
